Experimental data taken from PMC4774911, “Biochemical Screening of Five Protein Kinases from Plasmodium falciparum against 14,000 Cell-Active Compounds” (PLoS ONE, 2016).
pIC50: −log10 of the molar value. Where “and” joins values, the source holds several entries; their conditions need not be identical. Equal entries are not always repeated.

Columns and labels:
Assay in all cases: biochemical
ACVR1 = target: T1, ACVR1 (Homo sapiens, UniProt Q04771)
T1 sequence (Q04771 1-509): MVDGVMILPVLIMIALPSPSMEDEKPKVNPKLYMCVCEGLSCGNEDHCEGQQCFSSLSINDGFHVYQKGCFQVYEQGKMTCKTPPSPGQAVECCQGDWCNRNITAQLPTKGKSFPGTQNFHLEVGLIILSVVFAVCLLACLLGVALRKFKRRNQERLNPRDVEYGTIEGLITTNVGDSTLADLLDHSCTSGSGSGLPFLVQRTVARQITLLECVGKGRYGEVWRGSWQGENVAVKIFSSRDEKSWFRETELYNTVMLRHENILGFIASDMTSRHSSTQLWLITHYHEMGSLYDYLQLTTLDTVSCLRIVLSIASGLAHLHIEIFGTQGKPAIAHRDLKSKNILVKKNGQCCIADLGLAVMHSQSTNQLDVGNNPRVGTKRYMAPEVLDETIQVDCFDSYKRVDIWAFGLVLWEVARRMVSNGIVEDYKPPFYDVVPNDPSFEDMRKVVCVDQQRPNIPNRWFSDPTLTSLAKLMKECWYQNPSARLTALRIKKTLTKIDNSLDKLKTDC

BUB1 = BUB1 (Homo sapiens, UniProt O43683)
Sequence of BUB1 (O43683 whole entry): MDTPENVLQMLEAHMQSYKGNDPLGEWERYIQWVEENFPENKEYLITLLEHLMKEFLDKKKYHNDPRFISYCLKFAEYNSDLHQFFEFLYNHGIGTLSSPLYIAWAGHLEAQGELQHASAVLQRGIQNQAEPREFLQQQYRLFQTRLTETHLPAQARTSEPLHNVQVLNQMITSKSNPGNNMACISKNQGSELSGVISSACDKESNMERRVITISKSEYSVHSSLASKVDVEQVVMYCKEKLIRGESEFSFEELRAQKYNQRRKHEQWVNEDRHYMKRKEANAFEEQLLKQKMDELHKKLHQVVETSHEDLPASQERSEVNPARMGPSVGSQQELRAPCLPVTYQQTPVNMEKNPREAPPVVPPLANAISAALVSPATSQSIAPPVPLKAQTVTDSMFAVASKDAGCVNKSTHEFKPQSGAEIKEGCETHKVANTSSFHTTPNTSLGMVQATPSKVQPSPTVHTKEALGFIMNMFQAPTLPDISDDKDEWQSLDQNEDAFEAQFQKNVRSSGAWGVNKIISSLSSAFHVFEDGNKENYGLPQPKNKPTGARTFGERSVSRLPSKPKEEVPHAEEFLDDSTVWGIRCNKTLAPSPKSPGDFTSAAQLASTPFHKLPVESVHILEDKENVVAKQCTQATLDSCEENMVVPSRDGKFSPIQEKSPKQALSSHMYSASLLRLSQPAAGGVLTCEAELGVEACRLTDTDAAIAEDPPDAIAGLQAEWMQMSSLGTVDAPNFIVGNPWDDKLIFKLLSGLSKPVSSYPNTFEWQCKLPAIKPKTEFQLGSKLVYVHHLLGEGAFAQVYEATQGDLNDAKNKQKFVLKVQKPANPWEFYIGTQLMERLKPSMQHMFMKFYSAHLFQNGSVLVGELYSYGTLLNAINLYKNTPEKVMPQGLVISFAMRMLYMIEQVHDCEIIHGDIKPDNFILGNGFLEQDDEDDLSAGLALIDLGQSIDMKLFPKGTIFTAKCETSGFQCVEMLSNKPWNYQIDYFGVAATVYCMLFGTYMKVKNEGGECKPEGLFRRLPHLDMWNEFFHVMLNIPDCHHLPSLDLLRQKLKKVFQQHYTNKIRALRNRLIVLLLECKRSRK

CDK5 = CDK5 (Homo sapiens, UniProt Q00535)
Sequence of CDK5 (Q00535 whole entry): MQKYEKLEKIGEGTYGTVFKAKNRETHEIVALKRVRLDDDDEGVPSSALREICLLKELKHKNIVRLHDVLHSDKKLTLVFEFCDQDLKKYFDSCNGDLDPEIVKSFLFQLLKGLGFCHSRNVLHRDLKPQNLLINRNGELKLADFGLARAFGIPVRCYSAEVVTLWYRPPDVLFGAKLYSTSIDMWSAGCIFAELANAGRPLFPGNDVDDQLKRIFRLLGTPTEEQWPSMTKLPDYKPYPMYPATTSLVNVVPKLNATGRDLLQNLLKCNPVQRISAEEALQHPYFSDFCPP

CDK9 = CDK9 (Homo sapiens, UniProt P50750)
Sequence of CDK9 (P50750 whole entry): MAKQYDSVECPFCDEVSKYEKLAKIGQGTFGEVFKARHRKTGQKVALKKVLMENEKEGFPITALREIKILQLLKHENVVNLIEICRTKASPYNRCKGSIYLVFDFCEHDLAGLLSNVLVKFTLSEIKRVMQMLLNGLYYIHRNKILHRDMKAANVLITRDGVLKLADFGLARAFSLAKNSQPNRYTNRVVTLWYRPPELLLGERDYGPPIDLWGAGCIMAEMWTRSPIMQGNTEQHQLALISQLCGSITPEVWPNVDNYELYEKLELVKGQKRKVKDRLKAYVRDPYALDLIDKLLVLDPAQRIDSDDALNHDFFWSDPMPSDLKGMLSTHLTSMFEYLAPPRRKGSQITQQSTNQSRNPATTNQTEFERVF

CRKRS = CRKRS (Homo sapiens, UniProt Q9NYV4)
CSNK2A1 = CSNK2A1 (Homo sapiens, UniProt P68400)
Sequence of CSNK2A1 (P68400 whole entry): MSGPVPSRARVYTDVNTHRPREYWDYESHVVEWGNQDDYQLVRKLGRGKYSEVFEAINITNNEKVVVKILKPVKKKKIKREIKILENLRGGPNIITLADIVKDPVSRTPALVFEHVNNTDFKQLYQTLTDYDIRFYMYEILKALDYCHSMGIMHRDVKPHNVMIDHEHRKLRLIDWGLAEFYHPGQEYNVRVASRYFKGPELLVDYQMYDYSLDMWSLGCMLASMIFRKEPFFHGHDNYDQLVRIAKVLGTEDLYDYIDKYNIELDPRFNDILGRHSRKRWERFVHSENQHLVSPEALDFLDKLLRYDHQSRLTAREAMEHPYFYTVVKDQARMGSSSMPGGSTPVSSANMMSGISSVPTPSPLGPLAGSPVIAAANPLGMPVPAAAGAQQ

DDR1 = DDR1 (Homo sapiens, UniProt Q08345)
MAP2K4 = target: T2, MAP2K4 (Homo sapiens, UniProt P45985)
T2 sequence (P45985 1-399): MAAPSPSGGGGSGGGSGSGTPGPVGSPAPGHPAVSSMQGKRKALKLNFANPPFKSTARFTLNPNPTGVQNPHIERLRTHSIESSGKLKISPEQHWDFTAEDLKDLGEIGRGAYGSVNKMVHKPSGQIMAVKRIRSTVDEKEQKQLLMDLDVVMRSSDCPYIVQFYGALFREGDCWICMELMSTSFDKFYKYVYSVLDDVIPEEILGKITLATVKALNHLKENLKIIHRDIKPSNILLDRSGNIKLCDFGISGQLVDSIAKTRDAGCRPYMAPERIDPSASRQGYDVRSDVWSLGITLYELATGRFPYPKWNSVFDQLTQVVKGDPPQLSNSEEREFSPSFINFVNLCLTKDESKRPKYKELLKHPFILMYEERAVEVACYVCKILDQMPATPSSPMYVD

MAP3K1 = MAP3K1 (Homo sapiens, UniProt Q13233)
PCTK2 = PCTK2 (Homo sapiens, UniProt Q00537)
Sequence of PCTK2 (Q00537 whole entry): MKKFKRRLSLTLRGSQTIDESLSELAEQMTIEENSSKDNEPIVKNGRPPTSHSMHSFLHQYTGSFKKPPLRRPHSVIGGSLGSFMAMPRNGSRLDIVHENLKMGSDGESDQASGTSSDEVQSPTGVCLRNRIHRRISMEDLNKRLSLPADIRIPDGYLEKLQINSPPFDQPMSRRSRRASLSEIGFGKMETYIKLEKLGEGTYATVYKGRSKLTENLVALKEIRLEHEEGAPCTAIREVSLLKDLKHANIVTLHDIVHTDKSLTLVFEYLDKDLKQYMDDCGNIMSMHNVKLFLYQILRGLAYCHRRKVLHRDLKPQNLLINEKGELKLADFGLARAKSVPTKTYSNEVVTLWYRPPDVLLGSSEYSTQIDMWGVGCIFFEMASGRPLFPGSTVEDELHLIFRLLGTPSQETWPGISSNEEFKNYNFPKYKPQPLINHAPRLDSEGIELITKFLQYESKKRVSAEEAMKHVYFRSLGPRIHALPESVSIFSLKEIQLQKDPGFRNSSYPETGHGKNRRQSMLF

PRKCA = PRKCA (Homo sapiens, UniProt P17252)
TNIK = TNIK (Homo sapiens, UniProt Q9UKE5)
Sequence of TNIK (Q9UKE5 whole entry): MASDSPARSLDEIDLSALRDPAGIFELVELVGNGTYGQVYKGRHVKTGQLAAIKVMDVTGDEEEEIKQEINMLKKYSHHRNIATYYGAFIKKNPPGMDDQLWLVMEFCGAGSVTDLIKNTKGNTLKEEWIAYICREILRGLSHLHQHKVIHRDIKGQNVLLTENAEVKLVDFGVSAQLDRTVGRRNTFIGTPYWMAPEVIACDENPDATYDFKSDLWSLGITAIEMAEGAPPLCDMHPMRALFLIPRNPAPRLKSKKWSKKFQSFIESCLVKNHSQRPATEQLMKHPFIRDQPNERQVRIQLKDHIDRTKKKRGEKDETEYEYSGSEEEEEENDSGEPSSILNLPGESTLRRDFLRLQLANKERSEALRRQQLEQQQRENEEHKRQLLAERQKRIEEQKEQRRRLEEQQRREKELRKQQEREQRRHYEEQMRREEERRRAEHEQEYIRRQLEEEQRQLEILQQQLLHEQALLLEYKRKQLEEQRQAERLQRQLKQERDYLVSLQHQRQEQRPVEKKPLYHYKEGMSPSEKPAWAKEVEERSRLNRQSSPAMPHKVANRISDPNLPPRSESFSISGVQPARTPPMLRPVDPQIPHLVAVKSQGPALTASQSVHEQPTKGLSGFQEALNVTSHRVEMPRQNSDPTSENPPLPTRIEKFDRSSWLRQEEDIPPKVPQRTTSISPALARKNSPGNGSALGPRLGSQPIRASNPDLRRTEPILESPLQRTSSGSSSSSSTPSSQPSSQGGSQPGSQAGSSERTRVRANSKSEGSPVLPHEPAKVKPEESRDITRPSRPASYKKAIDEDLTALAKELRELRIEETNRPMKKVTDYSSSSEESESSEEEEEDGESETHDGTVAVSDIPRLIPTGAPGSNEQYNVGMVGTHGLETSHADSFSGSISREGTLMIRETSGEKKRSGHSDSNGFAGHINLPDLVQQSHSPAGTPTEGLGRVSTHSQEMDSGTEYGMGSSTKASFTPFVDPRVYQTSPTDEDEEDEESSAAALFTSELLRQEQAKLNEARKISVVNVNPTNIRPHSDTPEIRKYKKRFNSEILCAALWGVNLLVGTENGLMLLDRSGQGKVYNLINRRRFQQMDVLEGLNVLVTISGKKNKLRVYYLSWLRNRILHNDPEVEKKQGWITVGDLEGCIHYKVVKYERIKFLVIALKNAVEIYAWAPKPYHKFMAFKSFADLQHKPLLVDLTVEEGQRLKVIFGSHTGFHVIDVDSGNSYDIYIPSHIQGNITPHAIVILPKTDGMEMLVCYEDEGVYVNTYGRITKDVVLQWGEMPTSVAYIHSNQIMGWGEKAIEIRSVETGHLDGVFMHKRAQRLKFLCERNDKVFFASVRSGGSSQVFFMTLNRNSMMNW

TP53RK = target: T3, TP53RK (Homo sapiens, UniProt Q96S44)
T3 sequence (Q96S44 1-253): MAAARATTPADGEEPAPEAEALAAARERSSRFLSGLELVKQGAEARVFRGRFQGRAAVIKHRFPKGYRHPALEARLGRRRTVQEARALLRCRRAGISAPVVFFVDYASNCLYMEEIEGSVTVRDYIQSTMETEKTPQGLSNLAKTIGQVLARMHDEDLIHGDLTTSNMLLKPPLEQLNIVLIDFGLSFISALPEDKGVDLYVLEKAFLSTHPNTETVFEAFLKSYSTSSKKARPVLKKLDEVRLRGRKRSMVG

| Compound | pIC50 (ACVR1) | pIC50 (BUB1) | pIC50 (CDK5) | pIC50 (CDK9) | pIC50 (CRKRS) | pIC50 (CSNK2A1) | pIC50 (DDR1) | pIC50 (MAP2K4) | pIC50 (MAP3K1) | pIC50 (PCTK2) | pIC50 (PRKCA) | pIC50 (TNIK) | pIC50 (TP53RK) |
| --- | --- | --- | --- | --- | --- | --- | --- | --- | --- | --- | --- | --- | --- |
| CN1CCN(c2ccc(Nc3ncc(C#N)c(Nc4ccccc4C(N)=O)n3)cc2)CC1.Cl [TCMDC-134116] | 5.09 | 6.43 and 6.49 | 7.17 and 6.96 | 5.96 and 6.12 | 6.19 | ≥ 7.49 and 7.47 | 6.22 and 6.31 | < 4.70 | 5.80 | 7.12 and 6.96 | 6.13 | 6.70 and 6.60 | 5.40 |
| Cl.NCC1(c2nc(-c3ccc(Cl)c(O)c3)c(-c3ccncc3)[nH]2)CCCCC1 [TCMDC-141154] | < 4.70 | 6.62 and 6.77 | < 4.70 | < 4.70 | < 4.70 | < 4.70 | 5.74 | < 4.70 | < 4.70 | < 4.70 | < 4.70 | 6.54 | < 4.70 |
| CN(C)CC(O)COc1ccc(Nc2ncc([N+](=O)[O-])c(Nc3ccccc3O)n2)cc1.O=C(O)C(F)(F)F (stereo not drawn) [TCMDC-141399] | < 4.70 | < 4.70 | < 4.70 | 5.28 and 5.14 | 5.68 | 7.04 | 4.96 | < 4.70 | < 4.70 | 5.82 and 5.85 | < 4.70 | 6.09 | < 4.70 |
